According to patent US20130046098A1, “KINASE INHIBITORS” (THE UNIVERSITY OF MANCHESTER, priority 2009, published 2013):
“Also recorded” adds a separate entry of the source.

How the values were obtained:
[1] = test system: polyclonal GEF16 transfected NIH3T3 cells; experiment: Transformed colony forming assay (Toluidine blue)
Protocol: Following this incubation period the compound was then removed from the culture media and cells maintained in normal growth media for a further 10 days before the photographs shown were taken.
In FIG. 4A polyclonal GEF16 transfected cells were seeded at 2.0×10^5 cells per 30 mm dish and incubated over night. […] After a further 10 days culture in the absence of inhibitors the cells were stained with Toluidine blue and photographed to produce the images shown. […] These were incubated for 3 or 6 days then stained with Toluidine blue before being photographed.
Medium (containing the compound of interest—either Y27632 or the selected compounds of the invention—or DMSO control) was changed every 2 days. Formation of foci was analysed by Toluidine blue (Sigma-Aldrich, Poole, UK) staining after 10 days growth post confluence. […] Each assay was carried out in triplicate and the results shown are representative of at least three separate experiments.

[2] = test system: GEF16 transformed donor cells and non-transformed NIH3T3-vector recipient cells; experiment: Flow cytometric LY/PKH67 assay of gap junction intercellular communication (GJIC); assay type: cell-based, mouse; settings: 10 μM, p<0.05, FIG. 6B
Protocol: A novel flow cytometric assay was developed to measure the extent of gap junction intercellular communication (GJIC) using two differentially stained cell populations. Non-transformed recipient NIH3T3-vector cells were stained with PKH67 (Excitation 490, Emission 502, Sigma-Aldrich, Poole, UK) and GEF16 transformed donor cells were stained with Lucifer yellow (LY) (Excitation 427 nm, Emission 517 nm, Invitrogen Ltd., Paisley, UK) as follows.
A 1 ml suspension of 1×10^7 recipient cells in serum-free DMEM was mixed with an equal volume of 4 μM PKH67 solution and incubated for 5 min at room temperature. The reaction was terminated by adding 2 ml serum and incubating for 1 min. Cells were then washed three times with culture medium, and seeded at 1.5×10^6 cells/T-25 flask. […]
LY labelled donor cells were then harvested and 1×10^5 were added to the T25 flask containing the PKH67 labelled recipient cells plus 10 μM YA1 or DMSO control. After incubating for various time intervals, the co-cultured donor and recipient cells were collected and analysed using a BD FACS Aria™ (BD Biosciences, Oxford, UK). A 405 nm laser was used for LY excitation and emission was measured using a 515 nm to 545 nm band pass filter. GJIC between co-cultured donor and recipient cells was quantified as the percentage of LY and PKH67 double labelled cells.

[3] = biological target: T1, Aurora A (Homo sapiens, UniProt O14965); experiment: SelectScreen in vitro kinase profiling, single point
T1 sequence (O14965 1-403): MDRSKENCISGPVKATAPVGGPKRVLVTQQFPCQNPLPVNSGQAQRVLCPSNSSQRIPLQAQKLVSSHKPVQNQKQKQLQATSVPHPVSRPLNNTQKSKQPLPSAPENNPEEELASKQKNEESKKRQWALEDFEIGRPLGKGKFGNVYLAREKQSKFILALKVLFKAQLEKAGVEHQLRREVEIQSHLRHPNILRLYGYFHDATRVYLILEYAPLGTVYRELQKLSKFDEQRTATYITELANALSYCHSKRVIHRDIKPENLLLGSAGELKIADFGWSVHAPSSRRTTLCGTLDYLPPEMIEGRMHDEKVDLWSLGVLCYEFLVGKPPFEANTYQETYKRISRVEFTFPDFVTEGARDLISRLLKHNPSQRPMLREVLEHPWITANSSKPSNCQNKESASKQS

[4] = biological target: p38 alpha (MAPK14) (Homo sapiens, UniProt Q16539); experiment: as above
[5] = biological target: ROCK1 (Homo sapiens, UniProt Q13464); experiment: SelectScreen additional single point analysis; settings: 10 μM
[6] = test system: single transformed colony derived GEF16 cells co-cultured with non-transformed vector cells; experiment: Co-culture of single colony derived GEF16 cells with non-transformed vector cells; assay type: cell-based, mouse; settings: 10 μM, 10 days
Protocol: (§1) FIG. 5 illustrates that the growth suppressive effects of YA1 on single transformed colony derived GEF16 NIH3T3 cells and polyclonal Ras transformed NIH3T3 cells are more pronounced when these are co-cultured with non-transformed cells. In FIG. 5A single transformed colonies were picked from 10 day cultures of GEF16 polyclonal NIH3T3 cells and expanded. These cells were then seeded at 2.0×10^5 cells per 30 mm dish and treated with 10 μM of YA1 or DMSO control either immediately or following 10 days in culture. Duplicate wells were harvested for flow cytometry. In FIG. 5B a total of 2×10^5 cells per well were plated consisting of increasing numbers of non-transformed vector cells co-cultured with decreasing numbers of single transformed colony derived GEF16 cells. These were treated with 10 μM of either YA1 or DMSO for 10 days. In producing the results shown in FIG. 5C the same co-culture experiment described in connection with FIG. 5B was carried out substituting polyclonal Ras transformed NIH3T3 cells for GEF16 transformed cells.
Non-transformed vector cells mixed with decreasing numbers of cells expanded from single GEF16 transformed colonies were treated with the compound of the invention YA1, or with DMSO, and incubated for 10 days.

[7] = test system: GEF16 transfected NIH3T3 cells; experiment: Cell proliferation assay (Celltiter Aq96); assay type: cell-based, mouse; settings: 10 μM, FIG. 3B, P>0.05
Protocol: FIG. 1D is a bar chart showing the results of Cell AQ^96 assessment of the growth of GEF16 and vector transfected cells seeded in a 96 well plate at 1×10^3 cells per well. These were incubated for 3 days followed by addition of reagent to determine the starting point for the assay. 10 μM of either Y27632 or DMSO were then added to wells containing both cell types and Cell AQ^96 absorbance measured at 6, 8 and 10 days. At day 3 cells were 100% confluent which was determined by phase contrast visual inspection of the cultures at ×20 magnification;
Cell proliferation was investigated using Celltiter Aq^96 reagent (Promega, Southampton, UK) according to the manufacturer's protocol. Cells were seeded into a 96-well plate at a density of 1×10^3 cells/well allowing 3 wells per data point and allowed to attach for a set period. Following this, the initial starting point 490 nm absorbance was determined by adding 20 μl of Aq^96 reagent to each well and incubating for 4 h at 37° C. in 5% CO2 (96-well plate reader, Dynex Technologies, West Sussex, UK). The various compounds (Y27632 or compounds of the invention) or DMSO control were then added to duplicate wells and the absorbance determined in the same way at the time points indicated. Each data set shown is representative of three separate experiments.

[8] = test system: single transformed colony derived GEF16 NIH3T3 cells; experiment: Growth of cell populations derived from single GEF16 transformed colonies; assay type: cell-based, mouse
Protocol: as §1
Single transformed colonies were picked from GEF16 polyclonal NIH3T3 cells and expanded according to the methods described above. Expanded cell populations were plated and a compound of the invention (YA1) added either immediately or after 10 days when the cells were post-confluent.

[9] = additional single point analysis, 10 μM

p38 alpha (MAPK14), sequence (Q16539 whole entry): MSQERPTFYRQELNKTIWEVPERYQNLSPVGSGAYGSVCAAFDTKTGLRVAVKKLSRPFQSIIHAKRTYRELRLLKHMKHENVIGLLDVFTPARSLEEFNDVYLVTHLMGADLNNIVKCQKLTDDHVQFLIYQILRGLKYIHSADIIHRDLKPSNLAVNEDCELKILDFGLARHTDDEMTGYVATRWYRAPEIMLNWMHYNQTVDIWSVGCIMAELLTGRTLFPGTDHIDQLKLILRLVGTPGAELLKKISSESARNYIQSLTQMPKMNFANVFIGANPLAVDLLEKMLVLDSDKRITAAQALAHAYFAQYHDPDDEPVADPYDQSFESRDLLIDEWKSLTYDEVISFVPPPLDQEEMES
ROCK1, sequence (Q13464 whole entry): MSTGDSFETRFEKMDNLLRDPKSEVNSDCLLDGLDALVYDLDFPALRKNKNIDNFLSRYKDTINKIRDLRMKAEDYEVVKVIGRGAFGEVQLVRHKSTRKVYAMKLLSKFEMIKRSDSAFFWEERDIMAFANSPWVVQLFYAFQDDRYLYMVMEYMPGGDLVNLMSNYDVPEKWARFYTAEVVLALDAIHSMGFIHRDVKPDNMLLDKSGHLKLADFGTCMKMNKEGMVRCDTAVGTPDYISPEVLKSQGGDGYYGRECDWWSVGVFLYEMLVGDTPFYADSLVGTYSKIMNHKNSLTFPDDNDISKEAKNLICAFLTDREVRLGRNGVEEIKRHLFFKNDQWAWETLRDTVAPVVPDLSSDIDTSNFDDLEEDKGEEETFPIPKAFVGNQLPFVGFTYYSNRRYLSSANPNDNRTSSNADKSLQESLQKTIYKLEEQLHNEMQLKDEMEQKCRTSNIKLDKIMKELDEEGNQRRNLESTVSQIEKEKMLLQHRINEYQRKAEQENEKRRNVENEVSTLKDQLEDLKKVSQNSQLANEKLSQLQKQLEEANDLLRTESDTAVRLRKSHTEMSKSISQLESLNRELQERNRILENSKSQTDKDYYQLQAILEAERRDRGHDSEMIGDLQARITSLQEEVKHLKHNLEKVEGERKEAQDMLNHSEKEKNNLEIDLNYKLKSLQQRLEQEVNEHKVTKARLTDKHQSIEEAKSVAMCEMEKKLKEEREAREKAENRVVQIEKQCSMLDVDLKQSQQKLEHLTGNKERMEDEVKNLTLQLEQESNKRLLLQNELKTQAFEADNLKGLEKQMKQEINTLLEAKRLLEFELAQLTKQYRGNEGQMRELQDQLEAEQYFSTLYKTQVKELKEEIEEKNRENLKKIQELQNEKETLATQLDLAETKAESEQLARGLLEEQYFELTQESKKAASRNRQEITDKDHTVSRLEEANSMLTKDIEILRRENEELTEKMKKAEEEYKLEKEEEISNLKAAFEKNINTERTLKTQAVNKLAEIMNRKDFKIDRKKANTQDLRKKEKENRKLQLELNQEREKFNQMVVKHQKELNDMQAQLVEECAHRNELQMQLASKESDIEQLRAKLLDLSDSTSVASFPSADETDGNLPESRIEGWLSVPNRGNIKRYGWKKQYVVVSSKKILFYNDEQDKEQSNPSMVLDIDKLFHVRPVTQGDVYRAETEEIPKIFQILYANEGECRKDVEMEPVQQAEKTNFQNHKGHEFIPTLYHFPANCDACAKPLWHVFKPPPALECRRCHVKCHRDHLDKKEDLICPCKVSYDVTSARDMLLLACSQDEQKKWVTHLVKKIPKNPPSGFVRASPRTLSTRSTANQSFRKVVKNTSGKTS

- inhibition at 10 µM ([3]; read-out: inhibitory activity against Aurora A): 44%
- inhibition at 10 µM ([4]; read-out: inhibitory activity against p38 alpha (MAPK14)): 72%
- activity against ROCK1 [5]: less activity against ROCKs than YA2
SMILES: CC(C)(C)OC(=O)NCc1ccc(C(=O)Nc2ccncc2)cc1 [YA1, 4-(Pyridin-4-ylcarbamoyl)benzylcarbamic acid tert-butyl ester]
- number of transformed foci after transient exposure and withdrawal ([1]; 10 μM for 2, 4, 6, 8, 10 days, then 10 day chase in normal media): progressive decrease in the number of transformed foci associated with increased time of exposure
- transformed focus formation after treatment, re-seeding and chase ([1]; 10 μM for 2-10 days, re-seeded at 2×10^5, 10 day chase without inhibitor): able to suppress transformed focus formation
- formation of GEF16 transformed colonies ([1]; 10 μM, 10 days, post confluent cultures): able to block transformed GEF16 colony formation to an extent comparable to the inhibition achieved using Y27632; also recorded: greatest ability to inhibit GEF16 transformed colonies
- effect on pre-formed transformed colonies ([1]; colonies formed for 10 days, then 10 μM or 20 μM for 3 and 6 days): marked reduction in their numbers
- number of double LY/PKH67 labelled cells compared to DMSO control [2]: approximately 3 times
- activity against Aurora A [3, 9]: significant activity against p38, HGK and Aurora A
- activity against p38 [4, 9]: significant activity against p38, HGK and Aurora A
- final saturation density / growth of transformed cells in co-culture with non-transformed cells [6]: marked reduction in the final saturation density of the cultures; also recorded: more effective at suppressing the growth of transformed cells when these are in contact with non-transformed cells; also recorded: clearly restored when these are co-cultured with non-transformed NIH3T3 cells
- growth rates of sub-confluent GEF16 polyclonal cells versus DMSO control [7]: no detectable difference in growth rates
- effect on single colony derived GEF16 cells, added to post-confluent cultures ([8]; 10 μM, added after 10 days in culture): no discernible effect when compared to controls
- saturation density of single colony derived GEF16 cells, added to low density cultures ([8]; 10 μM, added immediately): modest effect when added to low density cultures
- effect on single colony derived GEF16 transformed cells grown in the absence of non-transformed cells ([8]; FIG. 5A): little or no effect
